The format of data set [1] is physicochemical. The following applies: warming to room temperature and shaking. The text has this:
The salts of the present invention allow one to prepare solutions of m-AMSA without the aid of dimethylacetamide. Depending upon the salt, concentration and temperature,standing may result in certain of the solutions of salts forming gels. However, a salt need only remain in solution for a period long enough for it to be administered to a patient.
Stability of Preferred --m-AMSA Salts

The next data set deals with mice. The following applies: studies using mice; cited from earlier work.

The source of these data is patent publication US4704397A, “Pharmaceutical salts of 4-(9-acridinyl-amino) methanesulfon-m-anisidide” (Warner-Lambert Company, priority 1981, dated 1987).

Structures are written as SMILES. Like-named read-outs stand apart in the source and are kept apart here.

For the compound `COc1cc(NS(C)(=O)=O)ccc1Nc1c2ccccc2nc2ccccc12` [gluconate, 4'-(9-acridinylamino)methanesulfon-m-anisidide D-gluconate], the “return of gelled solution to fluid state” value in data set [1] (10 mg/ml after storing at 5 °C) is “could not be achieved”; in data set [1] (lower concentrations gelled at 5 °C) it was “could be returned to a fluid state”.
Consider `COc1cc(NS(C)(=O)=O)ccc1Nc1c2ccccc2nc2ccccc12` [m-AMSA, 4'-(9-acridinylamino)methanesulfon-m-anisidide], for which the “activity in treating mammals” value in the data set on mice is listed as “high degree of activity”.
